Data as given in paper PMC10905675, “INX-315, a Selective CDK2 Inhibitor, Induces Cell Cycle Arrest and Senescence in Solid Tumors” (Cancer Discovery, 2023).
Like-named read-outs stand apart in the source and are kept apart here.

Columns and labels:
CDK2/cyclin E1 [1] = biological target: T1, CDK2/cyclin E1 (Homo sapiens, UniProt P24941); assay: NanoBRET live cell target engagement; assay type: binding
T1 construct: purchased Millipore 14-475
Method: (§1) Reaction Bio (Malvern, PA) conducted NanoBRET assays utilizing Promega NanoLuc technology with two replicates per experiment. The CDK2/E1 and CDK1/B1 values are the average of two separate experiments.
(§2) HEK293 cells were transfected using Opti-MEM without serum containing ratios of 9.0 µg/mL of Transfection Carrier DNA, 1.0 µg/mL of NanoLuc fusion vector DNA and 1 mL of Opti-MEM without phenol red. 30 µL of FuGENE HD transfection reagent was added to each milliliter of DNA mixture to form lipid:DNA complex. After incubation for 20 minutes at room temperature, 1 part lipid/DNA complex was added to 20 parts HEK293 cells in suspension. Cells were then plated and incubated overnight before being trypsinized and resuspended at 2 × 10^5 cells/mL. NanoBRET tracer reagent was added to cells at a ratio of 1 part tracer to 20 parts cell suspension. Cells were added to a 384-well plate and incubated for 1 hour. Plates were removed and incubated at room temperature for 15 minutes to equilibrate before 3x complete substrate plus inhibitor was added. After 2–3 minutes of incubation at room temperature, donor and acceptor wavelengths (460 nm and 600 nm, respectively) were measured using an Envision 2104 plate reader.

CDK9/cyclin T1 [2] = biological target: T2, CDK9/cyclin T1 (Homo sapiens, UniProt P50750); assay: NanoBRET live cell target engagement; assay type: binding
T2 construct: purchased Carna 04-110
T2 sequence (P50750 whole entry): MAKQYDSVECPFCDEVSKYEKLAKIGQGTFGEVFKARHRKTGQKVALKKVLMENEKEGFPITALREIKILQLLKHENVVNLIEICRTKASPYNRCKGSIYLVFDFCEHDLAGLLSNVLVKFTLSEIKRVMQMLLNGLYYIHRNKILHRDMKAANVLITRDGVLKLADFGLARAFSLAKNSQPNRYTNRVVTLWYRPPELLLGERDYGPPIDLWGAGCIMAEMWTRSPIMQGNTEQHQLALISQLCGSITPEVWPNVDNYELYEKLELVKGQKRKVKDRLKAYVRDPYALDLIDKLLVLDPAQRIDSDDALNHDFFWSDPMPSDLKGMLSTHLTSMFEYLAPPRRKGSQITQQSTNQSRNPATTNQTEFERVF
T2 sequence (O60563 whole entry partner): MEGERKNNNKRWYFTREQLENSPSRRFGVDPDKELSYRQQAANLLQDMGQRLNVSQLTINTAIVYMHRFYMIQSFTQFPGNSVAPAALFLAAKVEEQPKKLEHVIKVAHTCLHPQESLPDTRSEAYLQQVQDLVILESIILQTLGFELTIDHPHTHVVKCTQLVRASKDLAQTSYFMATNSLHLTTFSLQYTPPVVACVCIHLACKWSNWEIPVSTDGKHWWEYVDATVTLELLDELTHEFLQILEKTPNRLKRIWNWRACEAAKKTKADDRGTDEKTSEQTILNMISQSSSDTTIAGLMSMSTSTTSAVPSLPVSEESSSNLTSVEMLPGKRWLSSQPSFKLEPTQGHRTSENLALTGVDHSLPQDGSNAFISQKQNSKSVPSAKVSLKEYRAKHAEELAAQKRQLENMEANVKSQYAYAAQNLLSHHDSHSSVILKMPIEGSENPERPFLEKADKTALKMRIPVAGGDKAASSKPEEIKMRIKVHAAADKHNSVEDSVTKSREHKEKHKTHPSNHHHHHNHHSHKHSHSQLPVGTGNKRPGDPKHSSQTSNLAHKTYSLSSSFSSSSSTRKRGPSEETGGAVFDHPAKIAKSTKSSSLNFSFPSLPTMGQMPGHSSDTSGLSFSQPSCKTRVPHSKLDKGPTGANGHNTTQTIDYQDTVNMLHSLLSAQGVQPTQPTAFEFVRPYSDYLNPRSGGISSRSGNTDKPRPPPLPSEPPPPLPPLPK
Method: as §1, §2

CDK2/cyclin A1 = biological target: T3, CDK2/cyclin A1 (Homo sapiens, UniProt P24941); assay: NanoBRET live cell target engagement; assay type: binding
T3 construct: host or cells: HEK293
Method: as §1, §2

CDK1/cyclin B1 = biological target: T4, CDK1/cyclin B1 (Homo sapiens, UniProt P06493); assay: NanoBRET live cell target engagement; assay type: binding
T4 construct: purchased Millipore 14-450M
T4 sequence (P06493 whole entry): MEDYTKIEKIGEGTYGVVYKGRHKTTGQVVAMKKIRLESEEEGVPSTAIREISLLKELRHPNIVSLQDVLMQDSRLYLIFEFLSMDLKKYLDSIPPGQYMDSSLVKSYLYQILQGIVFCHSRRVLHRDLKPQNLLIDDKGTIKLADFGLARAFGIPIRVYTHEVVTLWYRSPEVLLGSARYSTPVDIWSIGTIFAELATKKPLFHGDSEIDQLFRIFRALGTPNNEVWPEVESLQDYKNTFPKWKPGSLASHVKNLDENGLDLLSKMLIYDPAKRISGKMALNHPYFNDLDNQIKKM
T4 sequence (P14635 whole entry partner): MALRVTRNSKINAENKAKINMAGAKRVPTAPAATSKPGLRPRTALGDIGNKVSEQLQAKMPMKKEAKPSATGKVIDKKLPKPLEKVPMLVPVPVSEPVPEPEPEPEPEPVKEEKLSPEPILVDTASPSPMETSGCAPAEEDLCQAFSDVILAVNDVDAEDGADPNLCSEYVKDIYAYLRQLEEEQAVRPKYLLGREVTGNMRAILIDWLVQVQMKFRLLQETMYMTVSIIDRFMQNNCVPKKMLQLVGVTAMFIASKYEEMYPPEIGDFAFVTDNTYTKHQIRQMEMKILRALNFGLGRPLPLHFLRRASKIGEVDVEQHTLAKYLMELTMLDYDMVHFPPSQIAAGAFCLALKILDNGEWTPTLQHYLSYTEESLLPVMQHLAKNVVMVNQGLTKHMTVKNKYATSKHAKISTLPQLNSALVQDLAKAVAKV
Method: as §1, §2

MKN1 cells = assay: Cell cycle flow cytometry; assay type: cell-based; conditions: 24 hours, 100 nmol/L
[3] = test system: gastric adenocarcinoma PDX GA0114; assay: PDX tumor growth; assay type: in vivo, mice; conditions: 100 mg/kg twice daily, 5-week experiment
Method: (§3) PDX models were performed by Crown Biosciences (OV5398, GA0103, and GA0114) or XenoSTART (ST4316B). Tumor fragments from stock mice were harvested and implanted subcutaneously into the flank of NOD/SCID mice (OV5398, RRID:IMSR_JAX:001303), BALB/c nude mice (GA0103 and GA0114, RRID:IMSR_RJ:BALB-C-NUDE), or athymic nude mice (Crl:NU(NCr)-Foxn1nu, RRID:IMSR_CRL:490) (ST4316B). For CDX models, female athymic nude mice (Crl:NU(NCr)-Foxn1nu, RRID:IMSR_CRL:490) were inoculated with 1 × 10^7 50% Cultrex OVCAR3 cells in the flank. Experiments performed using MMTV-rtTA/tetO-HER2 mice were performed at the Peter MacCallum Cancer Centre. Tumor formation was induced and sustained in female mice with doxycycline as previously described ([33]). Randomization and treatment in all models began when median tumor volume reached a maximum of 300 mm^3.
(§4) Mice were treated via oral gavage. INX-315 was prepared weekly in 100% PEG400; abemaciclib was prepared as previously described ([33]) and ribociclib (Selleckchem, S7440) was prepared weekly in 0.5% methyl cellulose. To generate abemaciclib-resistant MMTV-rtTA/tetO-HER2 tumors, mice were treated continuously with abemaciclib at a dose of 75 mg/kg until tumors resumed growth as described in text. At this point and in all other MMTV-rtTA/tetO-HER2 mice experiments, mice were randomized into treatment groups and abemaciclib was administered to indicated groups at a dose of 50 mg/kg. In all MMTV-rtTA/tetO-HER2 mice experiments, INX-315 was administered at a dose of 50 mg/kg twice daily. For PDX model ST4316B, ribociclib was administered at 50 mg/kg per day.

[4] = test system: gastric adenocarcinoma PDX GA0103; assay: PDX tumor growth; assay type: in vivo, mice; conditions: oral gavage, 56 days
Method: as §3, §4

ST4316B PDX = assay: PDX tumor growth; assay type: in vivo, mice; conditions: monotherapy; ribociclib 50 mg/kg per day
Method: as §3, §4

CDK3/cyclin E1 = biological target: T5, CDK3/cyclin E1 (Homo sapiens, UniProt Q00526); assay: Nanosyn biochemical assay
T5 construct: purchased BPS 40103
Method: (§5) Compounds were tested in kinase assays (Nanosyn, Inc.). The assays were completed using microfluidic kinase detection technology (Caliper Assay Platform). The compounds were tested in 12-point dose–response format in singlicate at the Km for ATP. Phosphoacceptor substrate peptide concentration used was 1 µmol/L and staurosporine was used as the reference compound for all assays. Details for individual Nanosyn assays performed are provided here: […]

CDK7 = biological target: T6, CDK7 (Homo sapiens, UniProt P50613); assay: Nanosyn biochemical assay; conditions: Supp Fig S1C, value (SEM), read-out: IC50 (nM) CDK7
T6 construct: purchased Carna 04-108
T6 sequence (P50613 whole entry): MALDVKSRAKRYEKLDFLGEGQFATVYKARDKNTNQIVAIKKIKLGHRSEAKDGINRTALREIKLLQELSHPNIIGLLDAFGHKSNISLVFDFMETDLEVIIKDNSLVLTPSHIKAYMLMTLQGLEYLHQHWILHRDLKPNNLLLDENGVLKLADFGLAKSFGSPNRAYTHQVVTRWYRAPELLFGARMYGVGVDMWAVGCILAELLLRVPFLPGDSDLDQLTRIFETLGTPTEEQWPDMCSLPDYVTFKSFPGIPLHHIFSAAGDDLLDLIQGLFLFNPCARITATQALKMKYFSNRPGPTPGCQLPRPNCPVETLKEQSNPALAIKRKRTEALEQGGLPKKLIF
T6 sequence (P51946 whole entry partner): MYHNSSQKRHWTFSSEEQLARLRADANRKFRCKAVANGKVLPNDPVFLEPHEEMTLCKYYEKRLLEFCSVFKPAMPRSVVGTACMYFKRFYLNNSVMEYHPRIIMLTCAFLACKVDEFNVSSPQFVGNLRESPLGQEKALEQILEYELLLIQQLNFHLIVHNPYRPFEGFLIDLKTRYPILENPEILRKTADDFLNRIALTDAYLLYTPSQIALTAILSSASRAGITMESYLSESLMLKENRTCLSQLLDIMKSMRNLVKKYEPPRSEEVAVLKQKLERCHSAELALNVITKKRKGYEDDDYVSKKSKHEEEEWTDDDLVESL
T6 sequence (P51948 whole entry partner): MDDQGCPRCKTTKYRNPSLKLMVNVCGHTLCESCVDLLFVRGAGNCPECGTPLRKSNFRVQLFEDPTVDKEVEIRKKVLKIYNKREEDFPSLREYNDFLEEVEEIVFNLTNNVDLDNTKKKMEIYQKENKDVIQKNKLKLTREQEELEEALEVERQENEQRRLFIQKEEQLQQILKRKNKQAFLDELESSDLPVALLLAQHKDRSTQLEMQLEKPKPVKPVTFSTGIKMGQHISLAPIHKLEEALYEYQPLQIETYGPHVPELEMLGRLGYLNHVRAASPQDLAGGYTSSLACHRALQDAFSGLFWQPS
Method: as §5

CDK2/cyclin E1 [5] = biological target: T1, CDK2/cyclin E1; assay: Nanosyn biochemical assay; conditions: for IC50: Nanosyn
Method: as §5

CDK9/cyclin T1 [6] = biological target: T2, CDK9/cyclin T1; assay: Nanosyn biochemical assay; conditions: Supp Fig S1D, representative dose response curve, read-out: IC50 CDK9 - Cyclin T1
Method: as §5

CDK5 = biological target: T7, CDK5 (Homo sapiens, UniProt Q00535); assay: Nanosyn biochemical assay
T7 construct: purchased ThermoFisher PV3000
T7 sequence (Q00535 whole entry): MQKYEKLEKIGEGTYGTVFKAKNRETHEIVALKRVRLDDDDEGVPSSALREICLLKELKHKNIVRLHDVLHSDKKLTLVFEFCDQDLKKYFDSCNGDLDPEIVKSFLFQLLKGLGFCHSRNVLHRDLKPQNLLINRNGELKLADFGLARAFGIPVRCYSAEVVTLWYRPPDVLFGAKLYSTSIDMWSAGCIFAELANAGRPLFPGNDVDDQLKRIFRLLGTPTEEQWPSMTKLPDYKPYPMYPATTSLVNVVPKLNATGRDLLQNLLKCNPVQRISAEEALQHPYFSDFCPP
T7 sequence (Q15078 2-307 partner limits assumed): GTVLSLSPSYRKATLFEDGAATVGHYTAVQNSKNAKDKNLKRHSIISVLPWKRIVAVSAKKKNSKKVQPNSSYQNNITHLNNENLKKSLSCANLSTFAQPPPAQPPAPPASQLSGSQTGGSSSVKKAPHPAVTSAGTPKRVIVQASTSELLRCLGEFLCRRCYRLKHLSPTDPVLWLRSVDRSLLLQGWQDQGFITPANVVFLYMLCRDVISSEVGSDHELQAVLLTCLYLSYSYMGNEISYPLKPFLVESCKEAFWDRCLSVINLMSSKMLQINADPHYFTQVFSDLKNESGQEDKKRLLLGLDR
Method: as §5

CDK2/cyclin A2 = biological target: T8, CDK2/cyclin A2 (Homo sapiens, UniProt P24941); assay: Nanosyn biochemical assay; conditions: Supp Fig S1D, representative dose response curve, read-out: IC50 CDK2 - Cyclin A
T8 construct: purchased Millipore 14-448
Method: as §5

CDK4/cyclin D1 = biological target: T9, CDK4/cyclin D1 (Homo sapiens, UniProt P11802); assay: Nanosyn biochemical assay
T9 construct: purchased ThermoFisher PV4400
T9 sequence (P11802 whole entry): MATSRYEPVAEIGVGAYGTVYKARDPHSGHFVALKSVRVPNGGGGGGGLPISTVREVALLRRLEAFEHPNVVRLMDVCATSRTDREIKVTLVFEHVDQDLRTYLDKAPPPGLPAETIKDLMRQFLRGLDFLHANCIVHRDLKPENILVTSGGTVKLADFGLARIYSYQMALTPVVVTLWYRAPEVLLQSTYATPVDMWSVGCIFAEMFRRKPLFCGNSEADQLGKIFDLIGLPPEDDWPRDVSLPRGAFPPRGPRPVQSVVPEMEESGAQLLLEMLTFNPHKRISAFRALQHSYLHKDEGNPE
T9 sequence (P24385 whole entry partner): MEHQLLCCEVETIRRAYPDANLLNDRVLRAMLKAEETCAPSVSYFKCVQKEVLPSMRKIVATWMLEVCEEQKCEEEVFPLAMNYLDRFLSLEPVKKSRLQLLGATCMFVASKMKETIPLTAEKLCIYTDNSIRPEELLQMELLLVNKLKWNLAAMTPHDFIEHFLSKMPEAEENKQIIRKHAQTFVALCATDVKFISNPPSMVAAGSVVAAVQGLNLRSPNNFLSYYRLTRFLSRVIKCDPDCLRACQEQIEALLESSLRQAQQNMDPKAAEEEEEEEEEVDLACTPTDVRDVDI
Method: as §5

[7] = NanoBRET intracellular IC50 ratio

Question: For `NS(=O)(=O)c1ccc(Nc2ncc3cc4n(c3n2)C2(CCCCC2)C(=O)NN4)cc1` [INX-315], which “Fold vs. CDK2/E1, CDK2/cyclin E1” value (CDK2/cyclin E1 [1]; [7]) is on record?
Answer: Its value is 1.

Question: What about the “increase of intracellular IC50 over the biochemical IC50, CDK2/cyclin E1” value (CDK2/cyclin E1 [1]; NanoBRET vs biochemical) of the same molecule?
Answer: Its value is 4 fold.

Question: And the IC50 (CDK2/cyclin E1 [1]; NanoBRET, HEK293 cells, value (SD), read-out: intracellular IC50 (nmol/L) CDK2/cyclin E1)?
Answer: Its IC50 is 2.3 nmol/L.

Question: What about the “Fold vs. CDK2/E1, CDK9/cyclin T1” value (CDK9/cyclin T1 [2]; [7]) of the same molecule?
Answer: The value was 1283.

Question: What about the IC50 (CDK9/cyclin T1 [2]; NanoBRET, HEK293 cells, value (SD), read-out: intracellular IC50 (nmol/L) CDK9/cyclin T1) of the same molecule?
Answer: Its IC50 is 2950 nmol/L.

Question: What about the “Fold vs. CDK2/E1, CDK2/cyclin A1” value (CDK2/cyclin A1; [7]) of the same molecule?
Answer: The value was 31.

Question: And the IC50 (CDK2/cyclin A1; NanoBRET, HEK293 cells, value (SD), read-out: intracellular IC50 (nmol/L) CDK2/cyclin A1)?
Answer: The IC50 was 71 nmol/L.

Question: What about the “Fold vs. CDK2/E1, CDK1/cyclin B1” value (CDK1/cyclin B1; [7]) of the same molecule?
Answer: The value was 163.

Question: And the IC50 (CDK1/cyclin B1; NanoBRET, HEK293 cells, value (SD), read-out: intracellular IC50 (nmol/L) CDK1/cyclin B1)?
Answer: The IC50 was 374 nmol/L.

Question: And the cell cycle effect (MKN1 cells)?
Answer: Its cell cycle effect is “strong G1 arrest”.

Question: What about the tumor growth [3] of the same molecule?
Answer: Its tumor growth is “significantly inhibited”.

Question: And the tumor growth ([4]; 100 mg/kg twice daily)?
Answer: The tumor growth was “tumor regression”.

Question: And the tumor growth ([4]; all other treatment groups: 25, 50 mg/kg twice daily, 100 mg/kg once a day)?
Answer: The tumor growth was “significant growth inhibition”.

Question: And the tumor growth (ST4316B PDX)?
Answer: The tumor growth was “slowed tumor growth modestly”.

Question: And the IC50 (CDK3/cyclin E1; ATP at Km, value (SEM), read-out: IC50 (nmol/L) CDK3/cyclin E1)?
Answer: The IC50 was 15.1 nmol/L.

Question: And the IC50 (CDK3/cyclin E1; Supp Fig S1D, representative dose response curve, read-out: IC50 CDK3 - Cyclin E)?
Answer: The IC50 was 15.1 nmol/L.

Question: What about the IC50 (CDK7) of the same molecule?
Answer: Its IC50 is > 10000 nM.

Question: And the IC50 (CDK2/cyclin E1 [5]; Supp Fig S1C, value (SEM), read-out: IC50 (nM) CDK2/cyclin E1)?
Answer: Its IC50 is 0.6 nM.

Question: What about the IC50 (CDK2/cyclin E1 [5]; Supp Fig S1D, representative dose response curve, read-out: IC50 CDK2 - Cyclin E) of the same molecule?
Answer: Its IC50 is 0.644 nM.

Question: What about the “increase in potency on CDK2 relative to compound C” value (CDK2/cyclin E1 [5]; biochemical IC50s) of the same molecule?
Answer: The value was ~10 fold.

Question: And the “selectivity for CDK2 compared with CDK1” value (CDK2/cyclin E1 [5]; biochemical IC50s)?
Answer: The value was 50 fold.

Question: What about the IC50 (CDK9/cyclin T1 [6]) of the same molecule?
Answer: The IC50 was 38.6 nM.

Question: What about the IC50 (CDK5; ATP at Km, value (SEM), read-out: IC50 (nmol/L) CDK5) of the same molecule?
Answer: The IC50 was 23.1 nmol/L.

Question: And the IC50 (CDK5; Supp Fig S1C, value (SEM), read-out: IC50 (nM) CDK5)?
Answer: The IC50 was 23.1 nmol/L.

Question: What about the IC50 (CDK5; Supp Fig S1D, representative dose response curve, read-out: IC50 CDK5 - p35) of the same molecule?
Answer: Its IC50 is 23.1 nmol/L.

Question: What about the IC50 (CDK2/cyclin A2) of the same molecule?
Answer: Its IC50 is 2.96 nM.

Question: What about the IC50 (CDK4/cyclin D1; Supp Fig S1C, value (SEM), read-out: IC50 (nM) CDK4/cyclin D1) of the same molecule?
Answer: Its IC50 is 126 nM.

Question: What about the IC50 (CDK4/cyclin D1; Supp Fig S1D, representative dose response curve, read-out: IC50 CDK4 - Cyclin D) of the same molecule?
Answer: The IC50 was 127 nM.
